Experimental data from patent US6610835B1, “Sphingolipid derivatives and their methods of use” (Emory University, priority 1998, dated 2003).

Tests used:
HT-29 cells = assay: MTT assay, induction of cell death by sphingolipids; assay type: cell-based, human
Description: The activity of sphingosine, sphinganine and 1-deoxy-5-hydroxy-sphinganine in a human colon cancer cell line was investigated. The structures of the tested compounds appear below. [drawing 4]
An MTT assay was used to determine the cytotoxicity of the compounds shown above. Only cells with intact mitochondria are able to form formazane crystals, whereas late apoptotic and necrotic cells are not. The optical density of formazane crystals is used to infer cell viability. A 15 μM treatment of 1-deoxy-5-hydroxy-sphinganine results in nearly 100% cell death in HT-29 cells after 24 hours.

[1] = system: ACF (DMH-initiated colonic tumors); assay: Chemically (DMH) induced colon cancer model, aberrant crypt foci (ACF) after dietary supplementation; assay type: in vivo, Female CF1 mice; conditions: for ACF: four weeks after DMH, control 30.2±4.19
Description: Female CF1 mice were injected with DMH to initiate colonic tumors. After initiation, the mice were fed and AIN 76A diet supplemented with GluAcCer (0.025 or 0.1% of the diet). The control group was fed the AIN 76A diet without supplements (one group without DMH and the other with DMH only). After four weeks, the mice were killed, the colons excised, and evaluated for the appearance of ACF.

colonic crypts = assay: Cell proliferation in colonic crypts of DMH-treated mice fed GluAcCer; assay type: in vivo
Description: Female CF1 mice were injected with DMH to initiate colonic tumors. […] The control group was fed the AIN 76A diet without supplements (one group without DMH and the other with DMH only). After four weeks, the mice were killed, the colons excised, and evaluated for the appearance of ACF.
The effect of GluAcCer on cell proliferation was also investigated since a deregulation of cell growth is observed in carcinogenesis. […] Therefore, feeding synthetic GluAcCer to mice suppresses the formation of early stages in colon carcinogenesis, possibly by restricting the proliferation to the lower half of the colonic crypt.

[2] = biological target: T1, β-glucuronidase from E. coli (Escherichia coli, UniProt P05804); assay: Cleavage of GluAcCer by bacterial β-glucuronidase; assay type: biochemical; conditions: β-glucuronidase from E. coli (Sigma), supplier's instructions
T1 construct: purchased Sigma
Source text: Glucornoylceramide (GluAcCer), a ceramide with a glucuronic acid headgroup was synthesized according to the methods described above. The metabolism of GluAcCer requires β-glucuronidase, an enzyme found in bacteria but not in human intestinal cells. Accordingly, dietary GluAcCer cannot be digested in the small intestine but should be hydrolyzed in the colon by the colonic microflora.

C3H 10T1/2 cells = conditions: cited from earlier work; for promotion of transformed foci by phorbol esters: levels that affected protein kinase C but not noticeably cytotoxic
[3] = system: renal bladder and colon cancer cell lines; conditions: cited from earlier work
[4] = system: aberrant colonic crypts induced by DMH; conditions: diet supplemented with 0.05% sphingomyelin, analyzed on week 7; cited from earlier work
DMH-induced tumors = conditions: cited from earlier work
[5] = in vivo; cited from earlier work
[6] = mouse, in vivo; cited from earlier work

T1 sequence (P05804 whole entry): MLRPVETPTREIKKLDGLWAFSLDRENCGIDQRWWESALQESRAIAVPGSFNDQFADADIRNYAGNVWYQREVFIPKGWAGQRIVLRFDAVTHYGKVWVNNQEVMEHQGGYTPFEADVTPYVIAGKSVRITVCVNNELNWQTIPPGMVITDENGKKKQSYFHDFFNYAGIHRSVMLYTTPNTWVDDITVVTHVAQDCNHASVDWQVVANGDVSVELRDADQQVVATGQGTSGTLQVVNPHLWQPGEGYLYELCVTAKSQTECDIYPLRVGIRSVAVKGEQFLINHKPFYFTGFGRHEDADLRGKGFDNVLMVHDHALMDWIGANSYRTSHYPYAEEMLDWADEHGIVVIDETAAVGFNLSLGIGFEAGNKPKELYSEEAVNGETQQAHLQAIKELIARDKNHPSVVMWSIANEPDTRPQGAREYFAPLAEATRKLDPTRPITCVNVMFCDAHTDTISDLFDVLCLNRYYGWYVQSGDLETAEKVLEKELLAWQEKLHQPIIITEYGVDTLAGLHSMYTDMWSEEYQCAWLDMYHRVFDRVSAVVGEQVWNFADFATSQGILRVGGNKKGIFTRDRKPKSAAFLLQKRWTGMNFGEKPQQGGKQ

Compound: CCCCCCCCCCCCCC(O)CC(O)C(C)N (stereo not drawn) [1-deoxy-5-hydroxy-sphinganine]
- potency in inducing cell death relative to sphingosine and sphinganine (HT-29 cells): at least twice as potent
- cell death (HT-29 cells; 15 μM treatment, after 24 hours): ~100%

Compound: CCCCCCCCCCCCC/C=C/[C@@H](O)[C@H](CO[C@@H]1O[C@H](C(=O)O)[C@@H](O)[C@H](O)[C@H]1O)NC(=O)CCCCCCCCCCCCCCC [GluAcCer, 1-O-B-D-Glucuronoyl-2N-palmitoylsphingosine]
- ACF ([1]; 0.025% GluAcCer in AIN 76A diet): 21 ±2.94
- inhibition of ACF formation ([1]; 0.025 or 0.1% of the diet, versus control (FIG. 12)): 20-30%
- ACF ([1]; 0.1% GluAcCer in AIN 76A diet): 19.2±3.09
- proliferation in the lower half of the colonic crypts (colonic crypts; GluAcCer (FIG. 13b)): reduced the proliferation
- proliferation in the upper half of the crypts (colonic crypts; both concentrations of GluAcCer in the diet (FIG. 13a)): reduced proliferation in the upper half of the crypts in a dose dependent manner
- ability to be cleaved by bacterial enzymes [2]: cleaved by bacterial enzymes

Compound: CCCCCCCCCCCCCCC[C@@H](O)[C@@H](N)CO [sphinganine]
- number of transformed foci in cells treated with just γ-irradiation (C3H 10T1/2 cells): reduced the number of transformed foci
- promotion of transformed foci by phorbol esters (C3H 10T1/2 cells): completely blocked
- treatment required to produce comparable (nearly 100%) cell death (HT-29 cells; after 24 hours): 50 µM

Compound: CCCCCCCCCCCCC/C=C/C(O)C(N)CO [sphingosine, D-erythro-4-trans-sphinganine]
- number of transformed foci in cells treated with just γ-irradiation (C3H 10T1/2 cells): reduced the number of transformed foci
- promotion of transformed foci by phorbol esters (C3H 10T1/2 cells): completely blocked
- treatment required to produce comparable (nearly 100%) cell death (HT-29 cells; after 24 hours): 50 µM

Compound: Fumonisin B
- cytostatic activity [3]: has cytostatic activity

Compound: sphingomyelin
- reduction in the number of aberrant colonic crypts induced by DMH [4]: 50%
- tumor incidence versus control (DMH-induced tumors; milk sphingomyelin pilot and buttermilk sphingomyelin experiment): about half
- tumor type (adenomas versus adenocarcinomas) (DMH-induced tumors; second study with buttermilk sphingomyelin, histological analyses): more adenomas versus adenocarcinomas than for the control
- number of overall tumors (DMH-induced tumors; second study with buttermilk sphingomyelin): no reduction
- peak absorption of radiolabel after feeding [5]: 10 h
- radiolabel found in feces, mainly as ceramide [5]: 21-46%
- radiolabel recovered in lymph [5]: up to 30%
- label appeared in liver sphingolipids [6]: About 5%
- radiolabel progressed into the colon [6]: 3-5%
